# Measurements taken from PubChem BioAssay AID330 (DTP/NCI, 2004).
# Values joined by “and” are separate entries in the source; they are usually repeats but may differ in a detail not shown here. Identical values can stand only once. Inconclusive results and toxic doses are left out.
# System: P388 leukemia ip, CD2F1 mice, survival T/C
# Assay: NCI In Vivo Anticancer Drug Screen. Data for tumor model P388 Leukemia (intraperitoneal) in CD2F1 (CDF1) mice
# Settings: endpoint: median survival time, higher = longer survival
# Outline: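 Mice carrying the transplanted tumor received test compound or vehicle. Survival was recorded in each group, and the value is the treated-group measurement divided by that of the vehicle-treated control group.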
# [1] = dose: 50.0 mg/kg/injection, schedule: Q01DX009 (ip), vehicle: saline + alcohol
# [2] = dose: 100.0 mg/kg/injection, schedule: Q01DX009 (ip), vehicle: saline + alcohol
# [3] = dose: 200.0 mg/kg/injection, schedule: Q01DX009 (ip), vehicle: saline + alcohol
# [4] = dose: 50.0 mg/kg/injection, schedule: Q01DX009 (ip), vehicle: saline
# [5] = dose: 50.0 mg/kg/injection, schedule: Q01DX009 (ip), vehicle: Klucel (hydroxypropylcellulose) (HPC)
# [6] = dose: 100.0 mg/kg/injection, schedule: Q01DX009 (ip), vehicle: Klucel (hydroxypropylcellulose) (HPC)
# [7] = dose: 200.0 mg/kg/injection, schedule: Q01DX009 (ip), vehicle: Klucel (hydroxypropylcellulose) (HPC)
# [8] = dose: 100.0 mg/kg/injection, schedule: Q01DX001 (ip), vehicle: saline with Tween-80
# [9] = dose: 200.0 mg/kg/injection, schedule: Q01DX001 (ip), vehicle: saline with Tween-80
# [10] = dose: 400.0 mg/kg/injection, schedule: Q01DX001 (ip), vehicle: saline with Tween-80
# [11] = dose: 50.0 mg/kg/injection, schedule: Q04DX003 (ip), vehicle: saline with Tween-80
# [12] = dose: 60.0 mg/kg/injection, schedule: Q01DX005 (ip), vehicle: saline with Tween-80
# [13] = dose: 120.0 mg/kg/injection, schedule: Q01DX005 (ip), vehicle: saline with Tween-80
# [14] = dose: 240.0 mg/kg/injection, schedule: Q01DX005 (ip), vehicle: saline with Tween-80
# [15] = dose: 50.0 mg/kg/injection, schedule: Q01DX009 (ip), vehicle: saline with Tween-80
# [16] = dose: 200.0 mg/kg/injection, schedule: Q01DX009 (ip), vehicle: saline with Tween-80
compound,measurement,setting,value
CCOC(=O)C(C(=O)COC)C(=O)OCC,T/C,"dose: 12.5 mg/kg/injection, schedule: Q01DX009 (ip), vehicle: water",100 % of control
same,T/C,"dose: 25.0 mg/kg/injection, schedule: Q01DX009 (ip), vehicle: water",99 % of control
same,T/C,"dose: 50.0 mg/kg/injection, schedule: Q01DX009 (ip), vehicle: water",99 % of control
same,T/C,"dose: 100.0 mg/kg/injection, schedule: Q01DX009 (ip), vehicle: water",98 % of control
same,T/C,"dose: 200.0 mg/kg/injection, schedule: Q01DX009 (ip), vehicle: water",97 % of control
COc1ccc(OC(=O)Nc2cc(Cl)c(OC)cc2OC)c(Cl)c1,T/C,[1],98 % of control
same,T/C,[2],105 % of control
same,T/C,[3],96 % of control
CC(C)N1CCN(c2ccncc2S(=O)(=O)N2CCCCC2)CC1,T/C,[4],89 % of control
same,T/C,"dose: 100.0 mg/kg/injection, schedule: Q01DX009 (ip), vehicle: saline",96 % of control
same,T/C,"dose: 200.0 mg/kg/injection, schedule: Q01DX009 (ip), vehicle: saline",90 % of control
CSc1nc(N)c(C(=O)Nc2cccc3ccccc23)s1,T/C,[5],100 % of control
same,T/C,[6],97 % of control
same,T/C,[7],97 % of control
COc1nnnc2c1sc1ccccc12,T/C,[8],101 % of control
same,T/C,[9],104 % of control
same,T/C,[10],102 % of control
C=C1C2(C(=O)O)CCC(C2)C1(C)C (stereo not drawn),T/C,"dose: 50.0 mg/kg/injection, schedule: Q01DX005 (ip), vehicle: saline with Tween-80",105 % of control
same,T/C,"dose: 100.0 mg/kg/injection, schedule: Q01DX005 (ip), vehicle: saline with Tween-80",101 % of control
same,T/C,"dose: 200.0 mg/kg/injection, schedule: Q01DX005 (ip), vehicle: saline with Tween-80",111 % of control
N#CSC/C(=N\Nc1ccc([N+](=O)[O-])cc1[N+](=O)[O-])c1ccccc1,T/C,[11],100 % of control
same,T/C,"dose: 100.0 mg/kg/injection, schedule: Q04DX003 (ip), vehicle: saline with Tween-80",95 % of control
same,T/C,"dose: 200.0 mg/kg/injection, schedule: Q04DX003 (ip), vehicle: saline with Tween-80",113 % of control
C[N+]12CC[N+](C)(CC1)CC2,T/C,"dose: 12.5 mg/kg/injection, schedule: Q01DX009 (ip), vehicle: saline",101 % of control
same,T/C,"dose: 25.0 mg/kg/injection, schedule: Q01DX009 (ip), vehicle: saline",109 % of control
same,T/C,[4],115 % of control
CN(C)c1ccc(/C=N/NC(=O)CNC(=O)c2ccccc2)cc1,T/C,[12],94 % of control
same,T/C,[13],92 % of control
same,T/C,[14],96 % of control
O=c1[nH]c(=O)c2nc(-c3cccnc3)cnc2[nH]1,T/C,[4],103 % of control and 120 % of control
Clc1ccc(-c2nnc3ncccn23)cc1,T/C,[8],96 % of control
same,T/C,[9],105 % of control
COC(=O)N(C)SN(C)C(=O)O/N=C(\SC)C(=O)N(C)C,T/C,"dose: 1.56 mg/kg/injection, schedule: Q01DX009 (ip), vehicle: saline",101 % of control
same,T/C,"dose: 3.12 mg/kg/injection, schedule: Q01DX009 (ip), vehicle: saline",102 % of control
CCCCNC(=O)OCc1c(COC(=O)NCCCC)c(-c2ccc(Cl)c(Cl)c2)n2c1CCC2,T/C,"dose: 25.0 mg/kg/injection, schedule: Q01DX009 (ip), vehicle: saline with Tween-80",153 % of control and 159 % of control
same,T/C,[15],150 % of control and 171 % of control
same,T/C,[16],163 % of control
CCOC(=O)CN1C(=S)CSC1=S,T/C,[5],106 % of control
same,T/C,[6],98 % of control
same,T/C,[7],107 % of control and 109 % of control
OCC(O)C(O)C(O)c1nnc2c3ccccc3c(-c3ccccc3)nn12 (stereo not drawn),T/C,[8],89 % of control
same,T/C,"dose: 100.0 mg/kg/injection, schedule: Q04DX002 (ip), vehicle: saline with Tween-80",91 % of control
same,T/C,[9],90 % of control
same,T/C,"dose: 200.0 mg/kg/injection, schedule: Q04DX002 (ip), vehicle: saline with Tween-80",90 % of control
same,T/C,[10],88 % of control
same,T/C,"dose: 400.0 mg/kg/injection, schedule: Q04DX002 (ip), vehicle: saline with Tween-80",93 % of control
CC1CC(C)(C)N=C(C2(c3ccccc3)CC2)O1 (stereo not drawn),T/C,[15],109 % of control
same,T/C,"dose: 100.0 mg/kg/injection, schedule: Q01DX009 (ip), vehicle: saline with Tween-80",109 % of control
same,T/C,[16],100 % of control
OCCN1CCN(CC/C=C2/c3ccccc3Sc3ccc(C(F)(F)F)cc32)CC1,T/C,"dose: 10.0 mg/kg/injection, schedule: Q04DX003 (ip), vehicle: saline",115 % of control and 123 % of control
same,T/C,"dose: 20.0 mg/kg/injection, schedule: Q04DX003 (ip), vehicle: saline",115 % of control
same,T/C,"dose: 80.0 mg/kg/injection, schedule: Q04DX003 (ip), vehicle: saline",91 % of control
c1ccc(CN2CSC3CCCCC32)cc1 (stereo not drawn),T/C,"dose: 25.0 mg/kg/injection, schedule: Q01DX005 (ip), vehicle: saline",102 % of control
same,T/C,"dose: 50.0 mg/kg/injection, schedule: Q01DX005 (ip), vehicle: saline",109 % of control and 110 % of control
same,T/C,"dose: 100.0 mg/kg/injection, schedule: Q01DX005 (ip), vehicle: saline",107 % of control and 118 % of control
same,T/C,"dose: 200.0 mg/kg/injection, schedule: Q01DX005 (ip), vehicle: saline",120 % of control
O=c1[nH]c2c(ccc3cccnc32)c2c1CCC2,T/C,"dose: 12.5 mg/kg/injection, schedule: Q04DX003 (ip), vehicle: saline with Tween-80",98 % of control
same,T/C,"dose: 25.0 mg/kg/injection, schedule: Q04DX003 (ip), vehicle: saline with Tween-80",95 % of control
same,T/C,[11],98 % of control
CC(=O)C1=C(N)C(C#N)=C(C)C(C)(O)C1 (stereo not drawn),T/C,[1],108 % of control
same,T/C,[2],90 % of control
same,T/C,[3],89 % of control
O=c1cc(CO)[nH]cc1O,T/C,[5],99 % of control
same,T/C,[6],123 % of control
same,T/C,"dose: 120.0 mg/kg/injection, schedule: Q01DX009 (ip), vehicle: saline with Tween-80",87 % of control
same,T/C,[7],122 % of control
same,T/C,"dose: 400.0 mg/kg/injection, schedule: Q01DX009 (ip), vehicle: saline with Tween-80",112 % of control
O=S1(=O)CCN(CCCc2ccccc2)CC1,T/C,[5],102 % of control
same,T/C,[6],105 % of control
same,T/C,[7],104 % of control
O=[N+]([O-])c1c(N2CCN(CCO)CC2)nc2ccccn12,T/C,"dose: 12.5 mg/kg/injection, schedule: Q01DX009 (ip), vehicle: Klucel (hydroxypropylcellulose) (HPC)",99 % of control
same,T/C,"dose: 25.0 mg/kg/injection, schedule: Q01DX009 (ip), vehicle: Klucel (hydroxypropylcellulose) (HPC)",91 % of control
same,T/C,[5],105 % of control
CC1(C)OC2OC(CN=NNc3ccc([N+](=O)[O-])cc3)C3OC(C)(C)OC3C2O1 (stereo not drawn),T/C,"dose: 60.0 mg/kg/injection, schedule: Q01DX005 (ip), vehicle: Klucel + Tween-80",100 % of control
same,T/C,"dose: 120.0 mg/kg/injection, schedule: Q01DX005 (ip), vehicle: Klucel + Tween-80",91 % of control
same,T/C,"dose: 240.0 mg/kg/injection, schedule: Q01DX005 (ip), vehicle: Klucel + Tween-80",87 % of control
COc1ccc(C[n+]2ccc3ccccc3c2C#N)cc1OC,T/C,"dose: 12.5 mg/kg/injection, schedule: Q04DX002 (ip), vehicle: saline",111 % of control
same,T/C,"dose: 25.0 mg/kg/injection, schedule: Q04DX002 (ip), vehicle: saline",109 % of control
O=C(Nc1ccccc1C(=O)OCCCl)NN1CCCCCC1,T/C,"dose: 50.0 mg/kg/injection, schedule: Q01DX005 (ip), vehicle: Klucel (hydroxypropylcellulose) (HPC)",107 % of control
same,T/C,"dose: 100.0 mg/kg/injection, schedule: Q01DX005 (ip), vehicle: Klucel (hydroxypropylcellulose) (HPC)",100 % of control
same,T/C,"dose: 200.0 mg/kg/injection, schedule: Q01DX005 (ip), vehicle: Klucel (hydroxypropylcellulose) (HPC)",98 % of control
O=C(SC(O)c1ccc([N+](=O)[O-])cc1)c1ccccc1 (stereo not drawn),T/C,"dose: 100.0 mg/kg/injection, schedule: Q04DX003 (ip), vehicle: Klucel (hydroxypropylcellulose) (HPC)",101 % of control
same,T/C,"dose: 200.0 mg/kg/injection, schedule: Q04DX003 (ip), vehicle: Klucel (hydroxypropylcellulose) (HPC)",106 % of control
same,T/C,"dose: 400.0 mg/kg/injection, schedule: Q04DX003 (ip), vehicle: Klucel (hydroxypropylcellulose) (HPC)",101 % of control
O=C(NC12OC3CC(CC(C3)O1)O2)NC12OC3CC(CC(C3)O1)O2,T/C,[8],100 % of control
same,T/C,[9],100 % of control
same,T/C,[10],111 % of control
CC(=O)NC1C(OC(C)=O)C(OC(C)=O)C(COC(C)=O)OC1[N+](=O)[O-] (stereo not drawn),T/C,[12],101 % of control
same,T/C,[13],94 % of control
same,T/C,[14],99 % of control
Clc1cccc(C(Nc2nncs2)Nc2nncs2)c1Cl,T/C,[12],89 % of control
same,T/C,[13],100 % of control
same,T/C,[14],96 % of control
